What was measured:
[1] = system: CD8^+ T cells; conditions: mouse, in vivo
[2] = system: CD8^+ T cells; conditions: mouse, in vivo; remark: listed apart in the source
[3] = system: CD8^+ T cells; conditions: mouse, in vivo; remark: listed apart in the source
[4] = system: CD8^+ T cells; assay type: in vivo, mouse
[5] = system: naive, epitope-specific precursor CD8^+ T cells; set-up: species or system mouse; conditions: for Naive epitope-specific CD8^+ T cells per mouse: spleen and lymph nodes of individual naive H-2^b mice, average, n = 15–19, tetramer-based enrichment
[6] = system: naive, epitope-specific precursor CD8^+ T cells; conditions: indirect titration of TCR transgenic T cells; cited from earlier work

GP33–41
IFN-γ response to wild-type epitopes in GPVNPV-inoculated mice [1]: significantly diminished amounts of IFN-γ
CD8^+ T cell response in F1 hybrid mice [2]: still elicited robust T cell responses
CD8^+ T cell response in rVACV-immunized mice [3]: the LCMV-specific response remained focused on the major dominant epitopes
Response to single peptide immunization relative to peptide pool immunization ([4]; Fig. 8A vs Fig. 6, wild-type GP33–41 peptide): ~2 fold
CD8^+ T cell response after peptide pool immunization ([4]; pool of 28 peptides, day 11–12, H-2^b mice): relatively strongly recognized
Precursor frequency relative to NP396–404/D^b-specific precursors ([5]; naive H-2^b mice): 4 fold
Naive epitope-specific CD8^+ T cells per mouse [5]: 449 CD8^+ T cells
Previous estimate of GP33–41/D^b-specific precursors [6]: 100–200 precursors

GP276–286 (SGVENPGGYCL; UniProt P09991 276-286, looked up, fragment)
IFN-γ response to wild-type epitopes in GPVNPV-inoculated mice [1]: significantly diminished amounts of IFN-γ

NP205–212 (YTVKYPNL; UniProt P09992 205-212, looked up, fragment)
Naive epitope-specific CD8^+ T cells per mouse [5]: 57 CD8^+ T cells

Reference: publication PMC3319690 (Journal of Immunology (Baltimore, Md. : 1950), 2008)
